Patent US8663669B2, “Pesticide treatment of soils or substrates with sulphur compounds” (Arkema France, priority 2002, dated 2014)

What was measured:
[1] = tested on: larvae of Meloidogyne arenaria; experiment: Nematicidal in vitro test on second-stage juvenile larvae; type: in vivo; conditions: for Immobility rate after 48 h: 24 h in solution then 24 h in pure water; for Immobility rate after 24 h: aqueous solution
Protocol: The second-stage juvenile larvae (the free and infesting stage) are immersed for 24 hours in the test solution and then the number of larvae paralysed are counted before transferring them into pure water for another 24 hours. At the end of the 48 hours which have thus elapsed, the larvae paralysed are again counted and the larvae truly dead are counted the next day.
The breeding of the nematodes was carried out on tomato plants. The tests were carried out with, aqueous solutions of DMDS at 0.0001%, 0.1%, 1% and 5% by mass, of DPDS at 1%, 5% and 10% by mass, and of allicin at 0.0003%, 0.0015% and 0.003% by mass, compared with a control consisting of pure water, and repeated five times. The ovicidal activity was also evaluated according to the same modalities, by counting the number of hatchings after 5 to 20 days following exposure to the products.

Phytophthora cactorum = experiment: Fungicidal efficacy by gassing, colonized millet grains; type: cell-based; design: Vitality score Nm (over 12 days): scale not given here; Reduction in viability RV / Reduction in vitality score RNm: unit not given here; conditions: for Reduction in viability RV / Reduction in vitality score RNm: compared with the control
Text: These four organisms are the following:
Phytophthora cactorum, one of the best known representatives of the Phytophthora family, polyphagous fungi which attack mainly tomato, sweet pepper and strawberry plants, these three crops representing the majority of the worldwide consumption of methyl bromide. Phytophthora cactorum, in particular, attacks mainly the strawberry plant and fruit trees.
• Sclerotinia sclerotiorum: sclerotia • Sclerotium rolfsii: sclerotia • Rhizoctonia solani: colonized barley grains (mycelium and sclerotia) • Phytophthora cactorum: colonized millet grains (mycelium, sporangia and oospores) Preparation of the Fungi (24 h Before the Gassing Operation) 1. Preparation of the sclerotia of Sclerotinia sclerotiorum and of Sclerotium rolfsii: The fungi are cultured on malt agar medium until the sclerotia are obtained. The sclerotia are collected in a sterile manner and stored dry in empty Petri dishes until they are used. The sclerotia used for the trial are over 3 months old and are perfectly dormant. 2. Preparation of Phytophthora cactorum and of Rhizoctonia solani: The millet and barley used for the multiplication of the two fungi are moistened with ultrapure water by immersing for 24 hours. The grains are then slightly drained and then distributed into flasks and autoclaved (3 autoclavings at 110° C. for 20 minutes, 3 times at 24 hour intervals). Fragments of fungal culture are introduced into the flasks which are then incubated at 22° C.±2° C. (white light 18 h) until homogeneous colonization is obtained. The grains are then removed from the flasks in a sterile manner, dried in the sterile stream of a safety cabinet and then stored in the dry state until they are used. Conditions for Gassing and for Desorption
All the batches of fungi to be treated are placed for a few hours at the trial temperature (20° C.). Between 35 and 300 units of fungi or “propagules” (grains or sclerotia) are subjected to gassing during each trial.
Each fumigation chamber comprising to one or more species of fungi corresponds to a glass round-bottomed flask which is impervious to the gas and has a volume of 11 litres. Each round-bottomed flask is equipped with branch connections, one at the bottom for introducing the liquid DMDS, one at the top for collecting the air sample with a syringe.
Before introducing the gas, a partial vacuum (−500 mbar) is established in the round-bottomed flask with a vacuum pump. This makes it possible, on the one hand, to avoid the phenomenon of excess pressure due to the expansibility of DMDS in the round-bottomed flask and, on the other hand, to promote better homogeneity of the air-gas mixture in the first few seconds which follow injection. The DMDS (weighed accurately to the mg) is injected with a syringe, in liquid form, through the bottom branch connection, that is to say under the screen placed at half height of the round-bottomed flask and supporting the batches of fungi. After introducing the product, the internal pressure of the round-bottomed flask is re-established at atmospheric pressure. A magnetic stirrer operates during the entire duration of the treatment in order to properly homogenize the air-gas mixture.
At the end of the gassing, the cover for the round-bottomed flask is removed. One minute after this operation, the batches of fungi gassed are taken out and left in the open air for 15 minutes for desorption of the DMDS. They are then transferred into a Petri dish, the latter remaining open for 5 minutes to allow perfect desorption of the gas. […]

[2] = CT 1 050 g·h/m^3 (C 15.91 g/m^3, T 66 h)
[3] = CT 1 402 g·h/m^3 (C 21.24 g/m^3, T 66 h)
[4] = CT 1 450 g·h/m^3 (C 30.96 g/m^3, T 48 h)
[5] = CT 1 899 g·h/m^3 (C 28.77 g/m^3, T 66 h)
[6] = CT 1 981 g·h/m^3 (C 30.02 g/m^3, T 66 h)
[7] = CT 2 460 g·h/m^3 (C 51.25 g/m^3, T 48 h)
[8] = CT 2 837 g·h/m^3 (C 42.98 g/m^3, T 66 h)
[9] = CT 3 169 g·h/m^3 (C 48.02 g/m^3, T 66 h)
[10] = CT 3 467 g·h/m^3 (C 52.53 g/m^3, T 66 h)
[11] = CT 419 g·h/m^3 (C 17.46 g/m^3, T 24 h)
[12] = CT 625 g·h/m^3 (C 26.04 g/m^3, T 24 h)
[13] = CT 703 g·h/m^3 (C 29.29 g/m^3, T 24 h)
[14] = CT 907 g·h/m^3 (C 37.79 g/m^3, T 24 h)

Structure (SMILES): CSSC [DMDS, dimethyl disulphide]
- Mortality rate after 72 h ([1]; concentration by mass 1 %): 80%
- Immobility rate after 48 h ([1]; concentration by mass 1 %): 84%
- Immobility rate after 24 h ([1]; concentration by mass 1 %): 72%
- Mortality rate after 72 h ([1]; concentration by mass 5 %): 98%
- Immobility rate after 48 h ([1]; concentration by mass 5 %): 98%
- Immobility rate after 24 h ([1]; concentration by mass 5 %): 97%
- Nematostatic and nematicidal activity ([1]; concentration of greater than or equal to 1%): high nematostatic and nematicidal activity
- Nematicidal activity ([1]; concentration of less than 1%): no nematicidal activity
- Nematostatic activity ([1]; concentration of less than 1%): very weak nematostatic activity
- Viability V (Phytophthora cactorum; [2]): 95%
- Vitality score Nm (over 12 days) (Phytophthora cactorum; [2]): 5.5
- Reduction in viability RV (Phytophthora cactorum; [2]): 5.0
- Reduction in vitality score RNm (Phytophthora cactorum; [2]): 43.1
- Viability V (Phytophthora cactorum; [3]): 97.8%
- Vitality score Nm (over 12 days) (Phytophthora cactorum; [3]): 6.6
- Reduction in viability RV (Phytophthora cactorum; [3]): 2.2
- Reduction in vitality score RNm (Phytophthora cactorum; [3]): 32.2
- Viability V (Phytophthora cactorum; [4]): 95%
- Vitality score Nm (over 12 days) (Phytophthora cactorum; [4]): 5.4
- Reduction in viability RV (Phytophthora cactorum; [4]): 3.4
- Reduction in vitality score RNm (Phytophthora cactorum; [4]): 40.7
- Viability V (Phytophthora cactorum; [5]): 97.8%
- Vitality score Nm (over 12 days) (Phytophthora cactorum; [5]): 5.6
- Reduction in viability RV (Phytophthora cactorum; [5]): 2.2
- Reduction in vitality score RNm (Phytophthora cactorum; [5]): 42.6
- Viability V (Phytophthora cactorum; [6]): 97.8%
- Vitality score Nm (over 12 days) (Phytophthora cactorum; [6]): 5.3
- Reduction in viability RV (Phytophthora cactorum; [6]): 2.2
- Reduction in vitality score RNm (Phytophthora cactorum; [6]): 45.7
- Viability V (Phytophthora cactorum; [7]): 43.3%
- Vitality score Nm (over 12 days) (Phytophthora cactorum; [7]): 1.7
- Reduction in viability RV (Phytophthora cactorum; [7]): 55.9
- Reduction in vitality score RNm (Phytophthora cactorum; [7]): 81.2
- Viability V (Phytophthora cactorum; [8]): 16.7%
- Vitality score Nm (over 12 days) (Phytophthora cactorum; [8]): 0.6
- Reduction in viability RV (Phytophthora cactorum; [8]): 83.3
- Reduction in vitality score RNm (Phytophthora cactorum; [8]): 93.6
- Viability V (Phytophthora cactorum; [9]): 1.1%
- Vitality score Nm (over 12 days) (Phytophthora cactorum; [9]): 0.05
- Reduction in viability RV (Phytophthora cactorum; [9]): 98.9
- Reduction in vitality score RNm (Phytophthora cactorum; [9]): 99.5
- Viability V (Phytophthora cactorum; [10]): 0%
- Vitality score Nm (over 12 days) (Phytophthora cactorum; [10]): 0
- Reduction in viability RV (Phytophthora cactorum; [10]): 100
- Reduction in vitality score RNm (Phytophthora cactorum; [10]): 100
- Viability V (Phytophthora cactorum; [11]): 91.7%
- Vitality score Nm (over 12 days) (Phytophthora cactorum; [11]): 7.7
- Reduction in viability RV (Phytophthora cactorum; [11]): 6.8
- Reduction in vitality score RNm (Phytophthora cactorum; [11]): 15.5
- Viability V (Phytophthora cactorum; [12]): 100%
- Vitality score Nm (over 12 days) (Phytophthora cactorum; [12]): 8.05
- Reduction in viability RV (Phytophthora cactorum; [12]): −1.7
- Reduction in vitality score RNm (Phytophthora cactorum; [12]): 11.9
- Viability V (Phytophthora cactorum; [13]): 100%
- Vitality score Nm (over 12 days) (Phytophthora cactorum; [13]): 8.3
- Reduction in viability RV (Phytophthora cactorum; [13]): −1.7
- Reduction in vitality score RNm (Phytophthora cactorum; [13]): 9.1
- Viability V (Phytophthora cactorum; [14]): 100%
- Vitality score Nm (over 12 days) (Phytophthora cactorum; [14]): 7.2
- Reduction in viability RV (Phytophthora cactorum; [14]): −1.7
- Reduction in vitality score RNm (Phytophthora cactorum; [14]): 21.2
